Results taken from patent US20080004272A1, “Compositions and methods for modulating gated ion channels” (PainCeptor Pharma Corporation, priority 2006, published 2008).

Assays:
ASIC1a [1] = target: T1, ASIC1a (Homo sapiens, UniProt P78348); experiment: Calcium imaging of MES-induced calcium response (FLIPR); type: cell-based; set-up: host or cells: HEK293; conditions: ASIC1a expressing HEK293 cells, MES-induced calcium response; read-out: IC50 (FLIPR)
T1 sequence (P78348 1-528): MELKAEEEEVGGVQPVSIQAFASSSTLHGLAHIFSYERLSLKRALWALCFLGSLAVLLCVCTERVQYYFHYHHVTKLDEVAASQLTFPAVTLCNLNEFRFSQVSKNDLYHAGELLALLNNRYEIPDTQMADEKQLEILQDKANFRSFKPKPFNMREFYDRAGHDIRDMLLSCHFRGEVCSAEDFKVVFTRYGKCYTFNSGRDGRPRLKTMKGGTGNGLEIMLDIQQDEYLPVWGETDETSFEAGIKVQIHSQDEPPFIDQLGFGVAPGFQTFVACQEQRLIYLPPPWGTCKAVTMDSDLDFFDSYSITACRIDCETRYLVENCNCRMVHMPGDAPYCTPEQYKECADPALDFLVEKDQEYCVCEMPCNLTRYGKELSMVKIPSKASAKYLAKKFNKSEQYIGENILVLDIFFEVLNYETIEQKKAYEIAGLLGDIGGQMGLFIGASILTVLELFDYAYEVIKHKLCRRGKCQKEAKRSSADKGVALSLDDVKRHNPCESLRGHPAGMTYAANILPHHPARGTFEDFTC

ASIC1a [2] = target: T1, ASIC1a; experiment: Two-electrode voltage clamp in Xenopus laevis oocytes (Xo), acid-induced currents; type: cell-based; set-up: expressed in transfected cells; host or cells: Xenopus laevis oocytes (nuclear microinjection of expression vector such as pcDNA3); conditions: Xenopus oocytes; for inhibition at 50 µM: read-out: % inh. at 50 μM (Xo); for inhibition at 100 µM: read-out: % inh. at 100 μM (Xo)
Procedure: Two-electrode voltage clamp electrophysiological assays in Xenopus laevis oocytes expressing gated ion channels are performed as follows:
Oocytes are surgically removed from adult Xenopus laevis and treated for 2 h at room temperature with 1 mg/ml type I collagenase (Sigma) in Barth's solution under mild agitation. Selected oocytes at stage IV-V are defolliculated manually before nuclear microinjection of 2.5-5 ng of a suitable expression vector, such as pcDNA3, comprising the nucleotide sequence encoding a gated ion channel subunit protein. In such an experiment, the oocytes express homomultimeric proton-gated ion channels on their surface. In an alternate experiment, one, two, three or more vectors comprising the coding sequences for distinct gated ion channel subunits are co-injected in the oocyte nuclei. In the latter case, oocytes express heteromultimeric proton-gated ion channels. For example, ASIC2a and/or ASIC3 subunits in pcDNA3 vector are co-injected at a 1:1 cDNA ratio. After 2-4 days of expression at 19° C. in Barth's solution containing […] gentamicin and 1.8 mM CaCl2, gated ion channels are activated by applying an acidic solution (pH<7) and currents are recorded in a two electrode voltage-clamp configuration, using an OC-725B amplifier (Warner Instruments). Currents are acquired and digitized at 500 Hz on an Apple Imac G3 computer with an A/D NB-MIO-16XL interface (National Instruments) and recorded traces are post-filtered at 100 Hz in Axograph (Axon Instruments) (Neher, E. and Sakmann, B. (1976) Nature 260:799-802). Once impaled with the microelectrodes, oocytes are continuously superfused at 10-12 ml/min with a modified Ringer's solution containing 97 mM NaCl, 2 mM KCl, 1.8 mM CaCl2, and 10 mM HEPES brought to pH 7.4 with NaOH (Control Ringer). Test Ringer solution is prepared by replacing HEPES with MES and adjusting the pH to the desired acidic value. Compounds of the present invention are prepared in both the Control and Test Ringer solutions and applied to oocytes at room temperature through a computer-controlled switching valve system. Osmolarity of all solutions is adjusted to 235 mOsm with choline chloride. Similarly, recordings can also be acquired in an automated multichannel oocytes system as the OpusExpress™ (Molecular Devices, Sunnyvale, USA).
FIGS. 1A and 2A illustrate the inhibitory effects of Compounds 203 and 206 on acid-induced activation of recombinant homomeric hASIC1a channels.

| SMILES | IC50 (ASIC1a [1]) [µM] | inhibition at 50 µM (ASIC1a [2]) [%] | inhibition at 100 µM (ASIC1a [2]) [%] |
| --- | --- | --- | --- |
| CN(C)/C=C1/C(=O)Nc2c1cc(-c1ccccc1)c1c2CN(C)CC1 [Compound 95] | > 70 | < 25 | – |
| Cc1nc2c3c(c(-c4ccccc4)cc2c(=O)o1)CCN(C)C3 [Compound 97] | > 70 | < 25 | – |
| CN1CCc2c(-c3ccccc3)cc3c(=O)[nH]c(=O)[nH]c3c2C1 [Compound 98] | > 70 | 20 to 40 | – |
| CN1CCc2c(-c3ccccc3)cc3[nH]c(=O)[nH]c3c2C1 [Compound 99] | > 70 | < 25 | – |
| CN1CCc2c(-c3ccccc3)cc3c(c2C1)NC(=O)/C3=N/N [Compound 102] | 20 to 40 | > 50 | – |
| CN1CCc2c(-c3ccccc3)cc3c(c2C1)NC(=O)/C3=N\NC(N)=O [Compound 103] | 40 to 60 | < 25 | – |
| CN1CCc2c(-c3ccccc3)cc3c(c2C1)NC(=O)/C3=N/NC(N)=S [Compound 104] | > 70 | 30 to 50 | – |
| [H]/N=C(\N)N/N=C1/C(=O)Nc2c1cc(-c1ccccc1)c1c2CN(C)CC1 [Compound 105] | 20 to 40 | 20 to 30 | – |
| CN1CCc2c(-c3ccccc3)ccc(CN)c2C1 [Compound 115] | > 70 | < 25 | – |
| COc1ccc(NC(=O)NCc2ccc(-c3ccccc3)c3c2CN(C)CC3)cc1 [Compound 117] | > 70 | < 25 | – |
| CCOC(=O)CNCc1ccc(-c2ccccc2)c2c1CN(C)CC2 [Compound 118] | > 70 | < 25 | – |
| CN1CCc2c(-c3ccccc3)ccc(CNCC(=O)O)c2C1 [Compound 119] | > 70 | < 25 | – |
| CCOC(=O)N1CCc2c(-c3ccccc3)ccc(CN)c2C1 [Compound 120] | > 70 | < 25 | – |
| CCOC(=O)CNCc1ccc(-c2ccccc2)c2c1CN(C(=O)OCC)CC2 [Compound 121] | > 70 | < 25 | – |
| CCOC(=O)/C=N\c1ccc(-c2ccccc2)c2c1CN(C)CC2 [Compound 124] | > 70 | < 25 | – |
| CCOC(=O)C(=O)Nc1ccc(-c2ccccc2)c2c1CN(C(=O)OCC)CC2 [Compound 125] | > 70 | < 25 | – |
| CCOC(=O)CNc1ccc(-c2ccccc2)c2c1CN(C)CC2 [Compound 126] | 20 to 40 | < 25 | – |
| CN1CCc2c(-c3ccccc3)ccc(NCC(=O)O)c2C1 [Compound 127] | > 70 | < 25 | – |
| CN1CCc2c(-c3ccccc3)cc(C(N)=O)c(N)c2C1 [Compound 128] | > 70 | < 25 | – |
| CN1CCc2c(-c3ccccc3)ccc(NC(=O)OC(C)(C)C)c2C1 [Compound 129] | 50 to 70 | < 25 | – |
| CN1CCc2c(-c3ccccc3)cc(C#N)c(NC(=O)OC(C)(C)C)c2C1 [Compound 130] | > 70 | < 25 | – |
| CN1CCc2c(-c3ccccc3)ccc(NC(=O)CCO)c2C1 [Compound 131] | > 70 | < 25 | – |
| COC(=O)CCC(=O)Nc1ccc(-c2ccccc2)c2c1CN(C)CC2 [Compound 132] | > 70 | < 25 | – |
| CN1CCc2c(-c3ccccc3)ccc(NC(=O)CCCO)c2C1 [Compound 133] | > 70 | < 25 | – |
| CN1CCc2c(-c3ccccc3)ccc(NC(=O)CCC(=O)O)c2C1 [Compound 134] | > 70 | < 25 | – |
| O=[N+]([O-])c1ccc(-c2ccccc2)c2ccncc12 [Compound 135] | > 70 | < 25 | – |
| Nc1ccc(-c2ccccc2)c2ccncc12 [Compound 136] | > 70 | < 25 | – |

| SMILES | IC50 (ASIC1a [1]) [µM] | inhibition at 50 µM (ASIC1a [2]) [%] | inhibition at 100 µM (ASIC1a [2]) [%] |
| --- | --- | --- | --- |
| COC(=O)CC(=O)Nc1ccc(-c2ccccc2)c2c1CN(C)CC2 [Compound 137] | > 70 | < 25 | – |
| CCOC(=O)N1CCc2c(-c3ccccc3)ccc(NCC(=O)O)c2C1 [Compound 138] | > 70 | < 25 | – |
| CCOC(=O)CN(C(C)=O)c1ccc(-c2ccccc2)c2c1CN(C(=O)OCC)CC2 [Compound 139] | 50 to 70 | < 25 | – |
| CCOC(=O)CNc1ccc(-c2ccccc2)c2c1CN(C(=O)OCC)CC2 [Compound 140] | > 70 | < 25 | – |
| CN1CCc2c(-c3ccccc3)cc(C(=O)O)c(N)c2C1 [Compound 141] | > 70 | < 25 | – |
| COC(=O)c1cc(-c2ccccc2)c2c(c1N)CN(C)CC2 [Compound 142] | > 70 | < 25 | – |
| CN1CCc2c(-c3ccccc3)ccc(NCCO)c2C1 [Compound 143] | > 70 | < 25 | – |
| CC(=O)Nc1c(C(=O)O)cc(-c2ccccc2)c2c1CN(C)CC2 [Compound 144] | > 70 | < 25 | – |
| CCOC(=O)N1CCc2c(-c3ccccc3)cc(C(=O)CCl)c(N)c2C1 [Compound 149] | > 70 | < 25 | – |
| CN1CCc2c(-c3ccccc3)ccc(Nc3ncccc3C(=O)O)c2C1 [Compound 150] | > 70 | < 25 | – |
| CN1CCc2c(-c3ccccc3)ccc(NCCC(=O)O)c2C1 [Compound 151] | > 70 | < 25 | – |
| CN1CCc2c(-c3ccccc3)cc([N+](=O)[O-])c(N)c2C1 [Compound 155] | 40 to 70 | < 25 | – |
| CC(=O)Nc1c(N)cc(-c2ccccc2)c2c1CN(C)CC2 [Compound 156] | > 70 | < 25 | – |
| CCOC(=O)N1CCc2c(Br)ccc([N+](=O)[O-])c2C1 [Compound 157] | > 70 | – | > 50 |
| CCOC(=O)N1CCc2c(Br)ccc(NCC(=O)OC)c2C1 [Compound 158] | > 70 | < 25 | – |
| CCOC(=O)N1CCc2c(-c3ccccc3)ccc(N)c2C1 [Compound 159] | > 70 | 20 to 40 | – |
| CCOC(=O)N1CCc2c(Br)ccc(N)c2C1 [Compound 160] | > 70 | – | 30 to 50 |
| CCOC(=O)N1CCc2c(-c3ccccc3)ccc([N+](=O)[O-])c2C1 [Compound 161] | > 70 | 20 to 40 | – |
| CCOC(=O)C(=O)Nc1ccc(-c2ccccc2)c2c1CN(C)CC2 [Compound 162] | > 70 | < 25 | – |
| CN1CCc2c(-c3ccccc3)ccc(Br)c2C1 [Compound 172] | 50 to 70 | < 25 | – |
| COC(=O)c1ccc(-c2ccccc2)c2c1CN(C(=O)OC(C)(C)C)CC2 [Compound 177] | > 70 | < 25 | – |
| CN1CCc2c(-c3ccccc3)ccc(C#N)c2C1 [Compound 178] | > 70 | < 25 | – |
| COC(=O)c1cc(-c2ccccc2)c2c(c1C(=O)OC)CN(C(=O)OC(C)(C)C)CC2 [Compound 179] | > 70 | < 25 | – |
| COC(=O)c1cc(-c2ccccc2)c2c(c1C(=O)OC)CN(C)CC2 [Compound 180] | > 70 | < 25 | – |
| CC(C)(C)OC(=O)N1CCc2c(-c3ccccc3)ccc(C(N)=O)c2C1 [Compound 181] | > 70 | < 25 | – |
| CC(C)(C)OC(=O)N1CCc2c(-c3ccccc3)ccc(C(=O)O)c2C1 [Compound 182] | > 70 | < 25 | – |
